From patent US4585757A, “Hypotensive active peptides” (Texas Tech University Health Sciences Center, priority 1984, dated 1986)
Like-named read-outs stand apart in the source and are kept apart here. Peptide text beside a SMILES is read from it.

How the values were obtained:
Mongrel dogs = assay: dog blood pressure assay; type: in vivo; conditions: dose 3 × 10^-9 moles/kg, mean of 4 replications
Experimental: The dog blood pressure assay was conducted according to the following method:
Mongrel dogs of either sex weighing between 6-15 kg were anesthetized by intravenous injection of sodium pentobarbital (30 mg/kg). The femoral artery and vein were cannulated for the measurement of blood pressure and the injection of drugs, respectively. Arterial blood pressure was determined with a Statham pressure transducer and was recorded on a Grass polygraph. Mean arterial pressure (MAP) were calculated for the periods before and after each peptide injection. A tracheotomy was performed to insure a patient airway for spontaneous respiration.
Hypotensive screening studies involved injecting each dog with 0.1; 0.5; 1.0; and 2.0 ug/kg. The CIP as supplied by Peninsula Laboratories was in the lyophilyzed form. Prior to injection the CIP was dissolved in saline.

[1] = tested on: rat tail artery helical strip; set-up: dose or concentration left out as unconfirmed; conditions: strips contracted with arginine vasopressin
Experimental: Male and female Sprague-Dawley rats were anesthetized with pentobarbital (50 mg/kg) before removal of the tail artery. Upon isolation the artery was placed in ice cold Krebs-Hensleit solution (KHS) which was oxygenated with 95% O2, 5% CO2. The vessels were cut helically and strips of approximately 1.5 cm were secured in a Sawyer-Bartleston chamber containing KHS. The development of force of the helical strips was measured with a Grass FT.03 force displacement transducer and recorded on a Grass Model 79D polygraph. Isolated tail artery helical strips were equilibrated for one hour prior to addition of any peptide. In all cases, the strips were first contracted by adding arginine vasopressin (AVP), to the bath. The peptide being studied was then added to the bath and the degree of relaxation was determined.

Sprague-Dawley rats = assay: rat blood pressure assay; type: in vivo; conditions: anesthetized rat, mean of 4 replications
Experimental: The rat blood pressure assay was conducted as follows: Sprague-Dawley rats of both sexes, weighing between 100 and 200 grams, were anesthetized with sodium pentobarbital and the right carotid artery and jugular vein were cannulated with polyethylene tubing PE50. The hypotensive peptide was administered and blood pressure was recorded in the anesthetized rats as described above for dogs.

Compound	Tension change ([1]; dose of 100)	Tension change ([1]; dose of 200)	Tension change ([1]; dose of 500)	other results
NC(N)=NCCC[C@H](NC(=O)[C@H](Cc1ccccc1)NC(=O)[C@@H]1CCCN1C(=O)[C@H](CO)NC(=O)[C@H](Cc1ccccc1)NC(=O)CNC(=O)[C@@H]1CCCN1C(=O)[C@@H]1CCCN1C(=O)[C@@H](N)CCCN=C(N)N)C(=O)O [Bradykinin] (H-RPPGFSPFR-OH)				Maximum Decrease in Blood Pressure (Mongrel dogs): 44 mmHg
N=C(N)NCCC[C@H](N)C(=O)O [L Arg, L-arginine]	0 gm	0 gm	0 gm	
O=C(O)[C@@H]1CCCN1 [L Pro, L-proline]	0 gm	0 gm	0 gm	
Thy-Pro-Arg-Lys [Contraceptive tetrapeptide]				Blood Pressure Decrease (Sprague-Dawley rats; dose 100.0 ug/kg): 2 mmHg; Blood Pressure Decrease (Sprague-Dawley rats; dose 200.0 ug/kg): 3 mmHg; Blood Pressure Decrease (Sprague-Dawley rats; dose 500.0 ug/kg): 9 mmHg; Blood Pressure Decrease (Sprague-Dawley rats; dose 1000.0 ug/kg): 13 mmHg; Blood Pressure Decrease (Sprague-Dawley rats; dose 2000.0 ug/kg): 15 mmHg
